Like-named read-outs stand apart in the source and are kept apart here.
Columns and labels:
human TASK-1 = molecular target: T1, human TASK-1 (Homo sapiens, UniProt O14649); test: Whole-cell patch clamp on tsA201 cells expressing cloned human TASK-1; type: cell-based; conditions: for inhibition of human TASK-1 current: acute application
T1 construct: expressed in transfected cells; host or cells: tsA201 (modified HEK293), transient transfection, pcDNA3.1+
Experimental: (§1) Murine (mur) wild‐type (WT) TASK‐1 (KCNK3, Genbank^TM DQ185133) and WT murTASK‐3 (KCNK9, Genbank^TM AH009585.2) cDNA were cloned into pCS2^+ vector and were a kind gift from William Wisden (Imperial College, UK). Human WT TASK‐1 (Genbank^TM AF006823.1), WT TASK‐3 (Genbank^TM AF212829) and WT TASK‐2 (KCNK5, Genbank^TM AF084830.1) cDNA’s, were cloned into pcDNA3.1^+ vector (Invitrogen) and were a kind gift from Helen Meadows (GlaxoSmithKline).
(§2) All experiments were performed using a modified human embryonic kidney 293 cell line, tsA201 (ECACC; Sigma‐Aldrich), prepared and maintained as previously described.54
(§3) For the electrophysiological experiments, cells were transiently transfected using a modified calcium phosphate protocol, following a process as previously described.54 Vectors cloned with the gene of interest and a similar vector encoding the cDNA for GFP were added to each well at a concentration of 0.5 µg per well, with the exception being for murTASK‐3, where 0.125 µg per well was used.
(§4) Currents were recorded from tsA201 cells transiently transfected with the channel of interest using whole‐cell patch clamp in a voltage clamp configuration and a step‐ramp voltage protocol as previously described.54 Briefly, all experiments were conducted at room temperature (20‐24°C) using an external solution composed of 145 mM of NaCl, 2.5 mM of KCL, 3 mM of MgCl2, 1 mM of CaCl2 and 10 mM of HEPES (pH 7.4, using NaOH) and an intracellular pipette solution composed of 150 mM of KCL, 3 mM of MgCl2, 5 mM of EGTA and 10 mM of HEPES (pH adjusted to 7.4 with KOH). External solution and modulatory compounds were superfused at a rate of 4‐5 mL min^−1. Currents were recorded using an Axopatch 1D patch clamp amplifier (Molecular Devices), filtered at 0.3 kHz, digitized at 1 kHz.
(§5) For analysis of outward current, we measured the current difference between the −80 and −40 mV. The current‐voltage graphs were obtained from the ramp change in voltage between −120 and +20 mV. For each cell, the current amplitude (pA) was normalized to the cell capacitance (pF). The currents obtained were analysed using pCLAMP 10.2 software (Molecular Devices), Microsoft Excel and GraphPad Prism 6 or 7 software. Data were expressed as the mean ± 95% Confidence Intervals (CI), and n represents the number of individual cells. For EC50 calculations, concentration‐response curves were fitted using the Hill equation. Statistical analysis used were one‐way ANOVA with a post‐hoc Dunnett's test or an unpaired/paired Student's t test. Data were considered statistically different if P < .05. The data and statistical analysis comply with the recommendations on experimental design and analysis in pharmacology.55

human TASK-3 = molecular target: T2, human TASK-3 (Homo sapiens, UniProt Q9NPC2); test: Whole-cell patch clamp on tsA201 cells expressing cloned human TASK-3; type: cell-based; conditions: for inhibition of human TASK-3 current: acute application
T2 construct: expressed in transfected cells; host or cells: tsA201 (modified HEK293), transient transfection, pcDNA3.1+
T2 sequence (Q9NPC2 whole entry): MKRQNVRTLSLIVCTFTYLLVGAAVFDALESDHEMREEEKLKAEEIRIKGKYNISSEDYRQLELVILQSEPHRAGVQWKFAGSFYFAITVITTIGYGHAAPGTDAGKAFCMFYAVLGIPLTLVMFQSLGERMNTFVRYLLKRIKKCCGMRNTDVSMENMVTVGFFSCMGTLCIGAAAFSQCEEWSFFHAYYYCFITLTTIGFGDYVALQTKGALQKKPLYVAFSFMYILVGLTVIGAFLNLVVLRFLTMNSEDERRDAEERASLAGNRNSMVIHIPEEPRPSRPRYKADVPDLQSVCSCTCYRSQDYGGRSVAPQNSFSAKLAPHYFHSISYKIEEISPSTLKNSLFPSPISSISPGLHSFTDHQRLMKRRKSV
Experimental: as §1, §2, §3, §4, §5

[1] = opioid challenged cynomolgus monkeys, intravenous; cited from earlier work
[2] = opioid challenged rats, intravenous; cited from earlier work

T1 sequence (O14649 whole entry): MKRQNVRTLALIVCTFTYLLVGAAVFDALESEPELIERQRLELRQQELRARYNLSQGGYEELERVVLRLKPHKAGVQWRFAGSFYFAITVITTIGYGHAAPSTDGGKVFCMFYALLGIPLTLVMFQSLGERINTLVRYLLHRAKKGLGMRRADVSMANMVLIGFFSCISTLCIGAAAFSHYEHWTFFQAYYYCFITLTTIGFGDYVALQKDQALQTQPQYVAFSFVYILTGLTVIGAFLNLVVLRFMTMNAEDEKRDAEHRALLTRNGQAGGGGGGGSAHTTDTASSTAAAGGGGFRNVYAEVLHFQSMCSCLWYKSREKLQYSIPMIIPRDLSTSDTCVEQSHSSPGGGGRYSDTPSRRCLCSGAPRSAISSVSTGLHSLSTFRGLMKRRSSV

inhibition of human TASK-1 current (human TASK-1; 10 µM): 3% | inhibition of human TASK-1 current (human TASK-1; 100 µM): 24% | inhibition of human TASK-1 current (human TASK-1; 300 µM): 47% | EC50 (human TASK-1; tsA201 cells, whole-cell patch clamp, room temperature, read-out: EC50, inhibition of human TASK-1 current): ~336 µM | inhibition of human TASK-3 current (human TASK-3; 10 µM, WT): 8% | inhibition of human TASK-3 current (human TASK-3; 100 µM, WT): 35% | inhibition of human TASK-3 current (human TASK-3; 300 µM): 50% | EC50 (human TASK-3; tsA201 cells, whole-cell patch clamp, room temperature, read-out: EC50, inhibition of human TASK-3 current): ~286 µM
Structure (SMILES): CCN1CC(CCN2CCOCC2)C(c2ccccc2)(c2ccccc2)C1=O (stereo not shown) [GAL‐053]
effect on minute volume [1]: had no effect | effect on minute volume [2]: had no effect

Reference: PMC7003846, “Effects of the ventilatory stimulant, doxapram on human TASK‐3 (KCNK9, K2P9.1) channels and TASK‐1 (KCNK3, K2P3.1) channels” (Acta Physiologica (Oxford, England), 2019)
